From patent US6399629B1, “Efflux pump inhibitors” (priority 1998, dated 2002)
Where a name gives a salt, the structure may show the parent alone.

Test system: Pseudomonas aeruginosa PAM1001
Test: microbe, parasite or virus in culture
Assay type: cell-based
Details: for inhibition at 2.5 µg/mL / inhibition at 5 µg/mL / inhibition at 10 µg/mL / inhibition at 20 µg/mL / inhibition at 40 µg/mL: Pseudomonas aeruginosa, PAM1001, read-out: Inhibition (%) of growth of P. aeruginosa PAM1001; for Inhibition (%) of growth of P. aeruginosa PAM1001: Levofloxacin 0.25 μg/mL
Procedure, shortened: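 P. aeruginosa PAM1001 grown in Mueller Hinton broth from 1×10^6 CFU/mL inoculum with levofloxacin 0.25 microg/mL plus varying EPI concentrations; growth followed by A650 over 18 h at 37° C. Result given as % growth inhibition versus levofloxacin-only culture without EPI.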

[1] = Concentration of Compound 2.5 μg/mL
[2] = Concentration of Compound 5 μg/mL
[3] = Concentration of Compound 10 μg/mL
[4] = Concentration of Compound 20 μg/mL
[5] = Concentration of Compound 40 μg/mL

Structure (SMILES) | inhibition at 2.5 µg/mL | inhibition at 5 µg/mL | inhibition at 10 µg/mL | inhibition at 20 µg/mL | inhibition at 40 µg/mL | Inhibition (%) of growth of P. aeruginosa PAM1001 [1] | Inhibition (%) of growth of P. aeruginosa PAM1001 [2] | Inhibition (%) of growth of P. aeruginosa PAM1001 [3] | Inhibition (%) of growth of P. aeruginosa PAM1001 [4] | Inhibition (%) of growth of P. aeruginosa PAM1001 [5]
N[C@H]1CCN[C@H](C(=O)Nc2ccc(Oc3ccccc3)cc2)C1 [Compound D329, trans-4-Amino-L-Pipecolinoyl-(4-Phenoxyphenyl)-amide Dihydrochloride] | 20% | 20% | 17% | 16% | 97% | – | – | – | – | –
NCC(=O)N[C@H]1CCN[C@H](C(=O)Nc2ccc(Oc3ccccc3)cc2)C1 [Compound D330, trans-4-Glycylamino-L-Pipecolinoyl 4-Phenoxy-phenylamide Dihydrochloride] | 19% | 18% | 12% | 100% | 100% | – | – | – | – | –
NC[C@H]1CN[C@H](C(=O)Nc2ccc(Oc3ccccc3)cc2)C1 [Compound D331, trans-4-Aminomethyl-L-Proline 4-Phenoxyphenyl-amide Dihydrochloride] | 17% | 9% | -10% | 100% | 100% | – | – | – | – | –
NCC(=O)N[C@H]1CN[C@H](C(=O)N2CCN(c3cccc(Cl)c3)CC2)C1 [Compound D401, 1-(trans-4-Glycylamino-L-Prolyl)-4-(3-Chlorophenyl)-piperazine Dihydrochloride] | 21% | 19% | 15% | 4% | 96% | – | – | – | – | –
Cc1c(Cl)cccc1N1CCN(C(=O)[C@H]2C[C@H](NC(=O)[C@@H](O)CN)CN2)CC1 [Compound D402, 1-[trans-4-((2S)-3-Amino-2-Hydroxypropionylamino)-D-Prolyl]-4-(3-Chloro-2-Methylphenyl)piperazine Dihydrochloride] | 19% | 71% | 99% | 100% | 101% | – | – | – | – | –
NCC(=O)N[C@H]1CN[C@H](C(=O)N2CCN(c3ccccc3Cl)CC2)C1 [Compound D405, 1-(trans-4-Glycylamino-L-Prolyl)-4-(2-Chlorophenyl)-piperazine Dihydrochloride] | 20% | 19% | 16% | -11% | 58% | – | – | – | – | –
Cc1c(Cl)cccc1N1CCN(C(=O)[C@@H]2C[C@@H](CN)CN2)CC1 [Compound D407, 1-(trans-4-Aminomethyl-L-Prolyl)-4-(3-Chloro-2-methylphenyl)piperazine Dihydrochloride] | 100% | 100% | 99% | 99% | 98% | – | – | – | – | –
NCC(=O)N[C@@H]1CN[C@@H](C(=O)N2CCN(Cc3ccccc3)C[C@H]2CCc2ccccc2)C1 [Compound D409, (2R)-4-Benzyl-1-(trans-4-Glycylamino-D-Prolyl)-2-Phenethylpiperazine Trihydrochloride] | 22% | 16% | 99% | 100% | 100% | – | – | – | – | –
NCC(=O)N[C@H]1CN[C@H](C(=O)N2CCC(Oc3ccc(OCc4ccccc4)cc3)CC2)C1 [Compound D413, 1-(trans-4-Glycylamino-L-Prolyl)4-(4-Benzyloxyphenoxy)piperidine Dihydrochloride] | 13% | 8% | 97% | 100% | 100% | – | – | – | – | –
NCC(=O)N[C@H]1CN[C@H](C(=O)N2CCC(Oc3cc(Cl)cc(Cl)c3)CC2)C1 [Compound D414, 1-(trans-4-Glycylamino-L-Prolyl)-4-(3,5-dichlorophenoxy)piperidine Dihydrochloride] | 19% | 98% | 100% | 100% | 100% | – | – | – | – | –
Cl.Cl.NCC(=O)N[C@@H]1CN[C@@H](C(=O)N2CCC(Oc3cc(Cl)cc(Cl)c3)CC2)C1 [Compound D415] | – | – | – | – | – | 13% | 99% | 100% | 100% | 100%
Cl.Cl.NCC(=O)N[C@H]1CN[C@H](COc2ccc(-c3ccccc3)cc2)C1 [Compound D501, (2S,4R)-4-Glycylamino-2-(4-Biphenyloxy)-methylpyrrolidine Dihydrochloride] | – | – | – | – | – | 1% | 98% | 100% | 100% | 98%
NCC(=O)N[C@H]1CN[C@H](COc2cccc(-c3ccccc3)c2)C1 [Compound D502, (2S,4R)-4-Glycylamino-2-(3-Biphenyloxy)methyl-pyrrolidine Dihydrochloride] | 13% | 88% | 99% | 100% | 100% | – | – | – | – | –
NCC(=O)N[C@@H]1CN[C@@H](COc2ccc(-c3ccccc3)cc2)C1 [Compound D503, (2R,4S)-4-Glycylamino-2-(4-Biphenyloxy)methyl-pyrrolidine Dihydrochloride] | 22% | 15% | 100% | 100% | 100% | – | – | – | – | –
NCC(=O)N[C@@H]1CN[C@@H](COc2cccc(-c3ccccc3)c2)C1 [Compound D504, (2R,4S)-4-Glycylamino-2-(3-Biphenyloxy)methyl-pyrrolidine Dihydrochloride] | 22% | 3% | 74% | 100% | 99% | – | – | – | – | –
NCCNC(=O)[C@@H]1C[C@@H](Oc2cccc(-c3ccccc3)c2)CN1 [Compound D601, trans-4-(3-Biphenyloxy)-L-Proline 2-Aminoethylamide Dihydrochloride] | 20% | 18% | 16% | 86% | 100% | – | – | – | – | –
NCC(O)[C@@H]1C[C@@H](Oc2cccc(-c3ccccc3)c2)CN1 (stereo partly drawn) [Compound D602, (2S,4R)-2-(2-Amino-1-hydroxyethyl)-4-(3-biphenyloxy)pyrrolidine Dihydrochloride] | 98% | 99% | 100% | 100% | 100% | – | – | – | – | –
Cl.Cl.NCC(=O)NC1CNC(C(=O)Nc2cccc(NC(=O)CCc3ccccc3)c2)C1 [Compound D701, 1-(N-trans-4-Glycylamino-L-Prolylamino)-3-(4-Phenylpropanoylamino)benzene Dihydrochloride] | – | – | – | – | – | 17% | 10% | 96% | 100% | 100%
